The values that follow come from patent publication US20240398811A1, “PRC2 INHIBITORS FOR USE IN TREATING BLOOD DISORDERS” (ORIC Pharmaceuticals, Inc., priority 2021, published 2024).

Structures are written as SMILES.

Sequence of purified human, His-tagged PRC2 complex (O75530 whole entry): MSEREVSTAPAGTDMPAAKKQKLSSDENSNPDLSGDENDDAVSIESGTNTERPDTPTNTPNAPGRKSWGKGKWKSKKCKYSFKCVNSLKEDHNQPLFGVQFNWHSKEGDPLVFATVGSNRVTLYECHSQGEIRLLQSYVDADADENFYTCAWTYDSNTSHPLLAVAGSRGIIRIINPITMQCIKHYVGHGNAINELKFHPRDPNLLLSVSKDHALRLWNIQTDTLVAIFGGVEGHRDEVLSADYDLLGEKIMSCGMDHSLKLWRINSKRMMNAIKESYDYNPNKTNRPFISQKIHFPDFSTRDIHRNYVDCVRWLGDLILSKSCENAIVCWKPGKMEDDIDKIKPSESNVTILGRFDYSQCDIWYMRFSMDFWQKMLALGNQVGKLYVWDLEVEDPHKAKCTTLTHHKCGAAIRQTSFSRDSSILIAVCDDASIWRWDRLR
Sequence of purified human, His-tagged PRC2 complex (Q15910 whole entry partner): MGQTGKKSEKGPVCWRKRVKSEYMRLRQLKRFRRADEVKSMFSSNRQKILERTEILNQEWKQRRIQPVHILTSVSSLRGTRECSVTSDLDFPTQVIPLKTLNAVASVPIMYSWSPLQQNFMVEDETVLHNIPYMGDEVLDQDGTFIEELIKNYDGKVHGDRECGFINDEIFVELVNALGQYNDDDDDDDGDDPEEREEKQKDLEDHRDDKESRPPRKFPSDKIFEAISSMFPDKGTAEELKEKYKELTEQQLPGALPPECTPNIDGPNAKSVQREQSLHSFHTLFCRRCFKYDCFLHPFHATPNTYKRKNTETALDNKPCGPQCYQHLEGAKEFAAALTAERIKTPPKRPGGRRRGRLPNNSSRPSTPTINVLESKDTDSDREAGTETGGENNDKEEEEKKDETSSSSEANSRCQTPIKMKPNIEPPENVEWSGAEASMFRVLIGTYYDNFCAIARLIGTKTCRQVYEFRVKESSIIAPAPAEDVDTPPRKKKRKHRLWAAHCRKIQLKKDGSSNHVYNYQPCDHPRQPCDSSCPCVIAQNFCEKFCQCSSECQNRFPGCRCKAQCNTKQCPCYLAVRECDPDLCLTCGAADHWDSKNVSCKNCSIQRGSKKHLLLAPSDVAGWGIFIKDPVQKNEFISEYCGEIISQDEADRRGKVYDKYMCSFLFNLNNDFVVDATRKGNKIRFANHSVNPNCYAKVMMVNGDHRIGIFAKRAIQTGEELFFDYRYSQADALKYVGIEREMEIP
Sequence of purified human, His-tagged PRC2 complex (Q15022 whole entry partner): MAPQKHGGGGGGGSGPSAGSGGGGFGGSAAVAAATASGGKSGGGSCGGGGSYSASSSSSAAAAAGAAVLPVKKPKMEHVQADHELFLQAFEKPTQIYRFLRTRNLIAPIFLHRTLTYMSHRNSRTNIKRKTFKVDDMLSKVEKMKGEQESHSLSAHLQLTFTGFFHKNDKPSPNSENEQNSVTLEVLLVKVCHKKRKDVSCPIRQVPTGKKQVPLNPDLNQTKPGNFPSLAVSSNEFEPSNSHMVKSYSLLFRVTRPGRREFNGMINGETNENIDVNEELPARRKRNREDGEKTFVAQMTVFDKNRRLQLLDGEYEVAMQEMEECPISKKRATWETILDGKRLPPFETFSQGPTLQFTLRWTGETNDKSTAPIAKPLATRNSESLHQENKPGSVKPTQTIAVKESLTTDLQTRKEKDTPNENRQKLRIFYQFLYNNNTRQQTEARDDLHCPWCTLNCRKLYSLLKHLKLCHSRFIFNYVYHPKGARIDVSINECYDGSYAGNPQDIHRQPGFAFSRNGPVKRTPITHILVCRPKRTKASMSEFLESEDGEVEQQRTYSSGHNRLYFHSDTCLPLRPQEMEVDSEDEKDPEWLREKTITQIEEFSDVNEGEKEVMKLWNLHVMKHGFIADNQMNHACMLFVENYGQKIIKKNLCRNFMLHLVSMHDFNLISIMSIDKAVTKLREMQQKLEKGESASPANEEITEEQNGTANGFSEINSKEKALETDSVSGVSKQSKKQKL
Sequence of purified human, His-tagged PRC2 complex (Q6ZN18 whole entry partner): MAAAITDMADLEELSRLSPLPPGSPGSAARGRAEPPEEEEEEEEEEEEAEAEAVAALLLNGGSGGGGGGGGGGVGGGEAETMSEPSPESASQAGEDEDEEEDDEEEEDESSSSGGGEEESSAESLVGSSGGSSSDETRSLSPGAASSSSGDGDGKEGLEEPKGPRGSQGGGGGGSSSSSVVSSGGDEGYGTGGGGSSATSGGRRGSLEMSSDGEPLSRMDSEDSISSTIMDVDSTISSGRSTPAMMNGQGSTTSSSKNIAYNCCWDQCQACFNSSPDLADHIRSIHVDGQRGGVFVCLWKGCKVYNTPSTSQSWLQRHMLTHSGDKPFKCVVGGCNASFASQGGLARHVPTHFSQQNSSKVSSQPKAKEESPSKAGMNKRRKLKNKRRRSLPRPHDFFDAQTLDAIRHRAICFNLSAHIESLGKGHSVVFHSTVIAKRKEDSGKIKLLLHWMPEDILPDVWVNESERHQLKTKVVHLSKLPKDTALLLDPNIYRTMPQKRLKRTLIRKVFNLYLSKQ
Sequence of purified human, His-tagged PRC2 complex (Q09028 whole entry partner): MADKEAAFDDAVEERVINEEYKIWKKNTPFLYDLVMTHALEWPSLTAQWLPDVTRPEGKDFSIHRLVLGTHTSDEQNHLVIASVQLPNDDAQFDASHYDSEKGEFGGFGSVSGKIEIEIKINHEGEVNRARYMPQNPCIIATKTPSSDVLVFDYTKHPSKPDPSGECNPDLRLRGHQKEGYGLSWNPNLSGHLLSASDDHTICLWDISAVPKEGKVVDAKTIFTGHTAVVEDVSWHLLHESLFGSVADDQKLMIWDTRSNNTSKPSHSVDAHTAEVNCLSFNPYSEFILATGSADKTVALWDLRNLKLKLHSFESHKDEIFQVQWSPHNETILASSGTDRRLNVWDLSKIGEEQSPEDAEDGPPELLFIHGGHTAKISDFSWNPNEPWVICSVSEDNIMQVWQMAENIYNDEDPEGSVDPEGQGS

The experiment addresses purified human, His-tagged PRC2 complex (Homo sapiens (Human), UniProt O75530). Put plainly: Hot Spot HMT assay, inhibition of PRC2 enzymatic activity. As to conditions: 10 nM PRC2 complex, 1 μM 3H-SAM, core histone H3, 10-point dose-response. The format is biochemical. From the text: The assay uses purified human, His-tagged PRC2 complex, including N-terminal His-tagged EZH2 enzyme, N-terminal Flag-tagged embryonic ectoderm development protein (EED), N-terminal His-tagged suppressor of zeste 12 (SUZ12), N-terminal His-tagged AEBP2, and N-terminal His-tagged RbAp48. In this assay, the transfer of the tritiated methyl group from radiolabeled S-adenosyl methionine (SAM) to purified core histone protein by EZH2 is quantitated after filtration to determine the activity of the core PRC2 complex in the presence and absence of compound.
The initial starting concentration for the serial dilutions of each compound was 1.0 μM. […] SAH (S-(5-adenosyl)-L-homocysteine) was used as a positive control for assay validation.
An aliquot of each serial dilution of test compound was added to deep 384 well plate using Acoustic Technology instrument (Echo 550, LabCyte) containing reaction buffer (50 mM Tris-HCl (pH 8.)), 0.01% Brij35, 1 mM EDTA, 1 mM DTT, 1 mM PMSF and 1% DMSO), 10 nM purified PRC2 complex and 0.05 mg/ml core histone H3 in a 5 μl volume. The reaction was mixed gently and then pre-incubated for 20 min at 30° C. The enzymatic reaction was initiated by adding 1 μM S-Adenosyl-L-[methyl-^3H]methionine and incubated for 1 hr at 30° C. After 1 hr, the reaction product was detected using a filter binding method and the amount of tritiated H3 core histone was quantitated using a scintillation counter. […] Key: A=<100 nM; B=>100 nM-<500 nM; and C=>500 nM.
In turn, `CN1CCC1c1ccc(-c2cnc(NCc3c(F)ccc4c3CCO4)n3cc(C#N)nc23)cc1` (centres unmarked) [Example 221, 5-(((5-fluoro-2,3-dihydrobenzofuran-4-yl)methyl)amino)-8-(4-(1-methylazetidin-2-yl)phenyl)imidazo[1,2-c]pyrimidine-2-carbonitrile] displayed an IC50 below 100 nM.

`COCCOc1ccc(-c2cnc(NCc3c(F)ccc4c3CCO4)n3cc(C#N)nc23)c(C)c1` [Example 206, 5-(((5-fluoro-2,3-dihydrobenzofuran-4-yl)methyl)amino)-8-(4-(2-methoxyethoxy)-2-methylphenyl)imidazo[1,2-c]pyrimidine-2-carbonitrile] returned an IC50 of 100 to 500 nM.

`Cn1nncc1-c1cnc(NCc2c(F)ccc3c2CCO3)n2cc(C#N)nc12` [Example 143, 5-(((5-fluoro-2,3-dihydrobenzofuran-4-yl)methyl)amino)-8-(1-methyl-1H-1,2,3-triazol-5-yl)imidazo[1,2-c]pyrimidine-2-carbonitrile] had an IC50 below 100 nM.

Molecule `Cc1nc(-c2cnc(NCc3c(F)ccc4c3CCO4)n3cc(C#N)nc23)c(C)s1` [Example 145, 8-(2,5-dimethylthiazol-4-yl)-5-(((5-fluoro-2,3-dihydrobenzofuran-4-yl)methyl)amino)imidazo[1,2-c]pyrimidine-2-carbonitrile] yielded an IC50 of 100 to 500 nM.

In the case of `COc1cc(Cl)c(-c2cnc(NCc3c(F)ccc4c3CCO4)n3cc(C#N)nc23)cn1` [Example 91, 8-(4-chloro-6-methoxypyridin-3-yl)-5-(((5-fluoro-2,3-dihydrobenzofuran-4-yl)methyl)amino)imidazo[1,2-c]pyrimidine-2-carbonitrile], the IC50 was in the range of 100 to 500 nM.

For `CN(C)Cc1ccc(-c2cnc(NCc3c(F)ccc4c3CCO4)n3cc(C#N)nc23)c(F)c1` [Example 61, 8-(4-((dimethylamino)methyl)-2-fluorophenyl)-5-(((5-fluoro-2,3-dihydrobenzofuran-4-yl)methyl)amino)imidazo[1,2-c]pyrimidine-2-carbonitrile], the IC50 was below 100 nM.

The molecule `N#Cc1cn2c(NCc3c(F)ccc4c3CCO4)ncc(-c3ccc(C4CCCO4)cc3)c2n1` (centres unmarked) [Example 162, 5-(((5-fluoro-2,3-dihydrobenzofuran-4-yl)methyl)amino)-8-(4-(tetrahydrofuran-2-yl)phenyl)imidazo[1,2-c]pyrimidine-2-carbonitrile] had an IC50 below 100 nM.

The molecule `N#Cc1cn2c(NCc3c(F)ccc4c3CCO4)ncc(-c3cnn(C4CCOCC4)c3)c2n1` [Example 120, 5-(((5-fluoro-2,3-dihydrobenzofuran-4-yl)methyl)amino)-8-(1-(tetrahydro-2H-pyran-4-yl)-1H-pyrazol-4-yl)imidazo[1,2-c]pyrimidine-2-carbonitrile] showed an IC50 above 500 nM.

Take `Cc1c(-c2cnc(NCc3c(F)ccc4c3CCO4)n3cc(C(N)=O)nc23)cnn1C(C)C` [Example 16, 5-(((5-fluoro-2,3-dihydrobenzofuran-4-yl)methyl)amino)-8-(1-isopropyl-5-methyl-1H-pyrazol-4-yl)imidazo[1,2-c]pyrimidine-2-carboxamide]: the IC50 was below 100 nM.

Regarding `N#Cc1cn2c(NCc3c(F)ccc4c3CCO4)ncc(-c3ccc(CN4CC(F)(F)C4)cc3)c2n1` [Example 51, 8-(4-((3,3-difluoroazetidin-1-yl)methyl)phenyl)-5-(((5-fluoro-2,3-dihydrobenzofuran-4-yl)methyl)amino)imidazo[1,2-c]pyrimidine-2-carbonitrile], the IC50 is below 100 nM.

Take `N#Cc1cn2c(NCc3c(F)ccc4c3CCO4)ncc(-c3cccnc3C(F)F)c2n1` [Example 64, 8-(2-(difluoromethyl)pyridin-3-yl)-5-(((5-fluoro-2,3-dihydrobenzofuran-4-yl)methyl)amino)imidazo[1,2-c]pyrimidine-2-carbonitrile]: the IC50 was below 100 nM.

In turn, `N#Cc1cn2c(NCc3c(F)ccc4c3CCO4)ncc(-c3ccc(CN4CCCC4=O)cc3)c2n1` [Example 49, 5-(((5-fluoro-2,3-dihydrobenzofuran-4-yl)methyl)amino)-8-(4-((2-oxopyrrolidin-1-yl)methyl)phenyl)imidazo[1,2-c]pyrimidine-2-carbonitrile] displayed an IC50 below 100 nM.

As to `[2H]C1Oc2ccc(F)c(C([2H])([2H])Nc3ncc(-c4ccc(CN(C)C)cc4C)c4nc(C#N)cn34)c2C1[2H]` (centres unmarked) [Example 223, 8-(4-((dimethylamino)methyl)-2-methylphenyl)-5-(((5-fluoro-2,3-dihydrobenzofuran-4-yl-2,3-d2)methyl-d2)amino)imidazo[1,2-c]pyrimidine-2-carbonitrile], the IC50 is below 100 nM.

As for `Cc1cc(S(=O)(=O)C(F)(F)F)ccc1-c1cnc(NCc2c(F)ccc3c2CCO3)n2cc(C#N)nc12` [Example 184, 5-(((5-fluoro-2,3-dihydrobenzofuran-4-yl)methyl)amino)-8-(2-methyl-4-((trifluoromethyl)sulfonyl)phenyl)imidazo[1,2-c]pyrimidine-2-carbonitrile], the IC50 was in the range of 100 to 500 nM.

For `Cc1cc(-c2cnc(NCc3cccc4c3CCO4)n3cc(C#N)nc23)n(C)n1` [Example 30, 5-(((2,3-dihydrobenzofuran-4-yl)methyl)amino)-8-(1,3-dimethyl-1H-pyrazol-5-yl)imidazo[1,2-c]pyrimidine-2-carbonitrile], the IC50 lay in the range of 100 to 500 nM.

`N#Cc1cn2c(NCc3c(F)ccc4c3CCO4)ncc(-c3ccc(N)nc3)c2n1` [Example 127, 8-(6-aminopyridin-3-yl)-5-(((5-fluoro-2,3-dihydrobenzofuran-4-yl)methyl)amino)imidazo[1,2-c]pyrimidine-2-carbonitrile] returned an IC50 below 100 nM.

The molecule `N#Cc1cn2c(NCc3c(F)ccc4c3CCO4)ncc(-c3ccc(CN4CCC(F)C4)cc3)c2n1` (centres unmarked) [Example 54, 5-(((5-fluoro-2,3-dihydrobenzofuran-4-yl)methyl)amino)-8-(4-((3-fluoropyrrolidin-1-yl)methyl)phenyl)imidazo[1,2-c]pyrimidine-2-carbonitrile] returned an IC50 below 100 nM.

The molecule `Cc1cc(-c2cnc(NCc3c(Cl)ccc4c3CCO4)n3cc(C#N)nc23)n(C)n1` [Example 29, 5-(((5-chloro-2,3-dihydrobenzofuran-4-yl)methyl)amino)-8-(1,3-dimethyl-1H-pyrazol-5-yl)imidazo[1,2-c]pyrimidine-2-carbonitrile] had an IC50 above 500 nM.

In the case of `[2H]C([2H])([2H])N(Cc1ccc(-c2cnc(NCc3c(F)ccc4c3CCO4)n3cc(C#N)nc23)c(C)c1)C([2H])([2H])[2H]` [Example 202, 8-(4-((bis(methyl-d3)amino)methyl)-2-methylphenyl)-5-(((5-fluoro-2,3-dihydrobenzofuran-4-yl)methyl)amino)imidazo[1,2-c]pyrimidine-2-carbonitrile], the IC50 is below 100 nM.

The molecule `[2H]C([2H])(Nc1ncc(-c2ccc(CN(C)C)cc2)c2nc(C#N)cn12)c1c(F)ccc2c1CCO2` [Example 165, 8-(4-((dimethylamino)methyl)phenyl)-5-(((5-fluoro-2,3-dihydrobenzofuran-4-yl)methyl-d2)amino)imidazo[1,2-c]pyrimidine-2-carbonitrile] gave an IC50 below 100 nM.

`N#Cc1cn2c(NCc3c(F)ccc4c3CCO4)ncc(-c3ccc(C4CCCN4)cc3)c2n1` (centres unmarked) [Example 204, 5-(((5-fluoro-2,3-dihydrobenzofuran-4-yl)methyl)amino)-8-(4-(pyrrolidin-2-yl)phenyl)imidazo[1,2-c]pyrimidine-2-carbonitrile] showed an IC50 of 100 to 500 nM.

As to `COC(=O)c1cc(-c2cnc(NCc3c(F)ccc4c3CCO4)n3cc(C#N)nc23)n(C)n1` [Example 169, methyl 5-(2-cyano-5-(((5-fluoro-2,3-dihydrobenzofuran-4-yl)methyl)amino)imidazo[1,2-c]pyrimidin-8-yl)-1-methyl-1H-pyrazole-3-carboxylate], the IC50 is below 100 nM.

On to `COC(=O)c1ccc(-c2cnc(NCc3c(F)ccc4c3CCO4)n3cc(C#N)nc23)cc1` [Example 167, methyl 4-(2-cyano-5-(((5-fluoro-2,3-dihydrobenzofuran-4-yl)methyl)amino)imidazo[1,2-c]pyrimidin-8-yl)benzoate], for which the IC50 lay in the range of 100 to 500 nM.

Molecule `Cc1cc(C2CCCN2)ccc1-c1cnc(NCc2c(F)ccc3c2CCO3)n2cc(C#N)nc12` (single isomer, unassigned) [Example 214, 5-(((5-fluoro-2,3-dihydrobenzofuran-4-yl)methyl)amino)-8-(2-methyl-4-(pyrrolidin-2-yl)phenyl)imidazo[1,2-c]pyrimidine-2-carbonitrile] had a half-maximal inhibitory concentration (IC50) below 100 nM.

As to `N#Cc1cn2c(NCc3c(F)ccc4c3CCO4)ncc(C3CCOCC3)c2n1` [Example 141, 5-(((5-fluoro-2,3-dihydrobenzofuran-4-yl)methyl)amino)-8-(tetrahydro-2H-pyran-4-yl)imidazo[1,2-c]pyrimidine-2-carbonitrile], the concentration for half-maximal inhibition (IC50) is above 500 nM.

As to `CN(C)Cc1ccc(-c2cnc(NCc3c(F)ccc4c3CCO4)n3cc(C#N)nc23)cc1C#N` [Example 201, 8-(3-cyano-4-((dimethylamino)methyl)phenyl)-5-(((5-fluoro-2,3-dihydrobenzofuran-4-yl)methyl)amino)imidazo[1,2-c]pyrimidine-2-carbonitrile], the IC50 was below 100 nM.

One may read the IC50 as the concentration that inhibits the measured activity by half. High values mean lower potency, low ones higher potency.
